Experimental data reported in patent publication US10729691B2, “Treatment of infectious diseases with glucose uptake inhibitors” (Kadmon Corporation LLC, priority 2015, dated 2020).
Counter-ions that a name gives are not always drawn.

System: P. falciparum-infected RBCs
Experiment: Glycolysis IC50 / lactate excretion assay in P. falciparum-infected RBCs
Assay type: cell-based
Conditions: Plasmodium falciparum
Protocol: The cultures were harvested and DNA quantitated using the standard Sybr Green I fluorescence assay. […] The culture medium was harvested and extracellular lactic acid was quantified by LC-MS.
P. falciparum (HB-3 strain) cultures were maintained in standard culture conditions. […] Parasites were grown in O+ donor blood, 2% hematocrit.
Parasite cultures were seeded in 96-well plates (1% hematocrit, 1-2% starting parasitemia, 100 μL total volume) with varying concentrations of the test compounds in a final concentration of 0.1% DMSO. Plates were cultured for 48 hours before harvesting the culture medium for LC-MS analysis. At harvest, thin smears were taken and examined microscopically to observe any alterations in parasite morphology.
Culture medium samples were diluted in 9 volumes of methanol containing U-^13C-glucose and 1-^13C-lactate (final concentration 0.25 mM each). The samples were clarified by centrifugation at 13,000 RCF for 10 minutes. […] Mobile phase A was acetonitrile, and mobile phase B was 20 mM ammonium acetate (pH 9.4).
The sample was analyzed on an Exactive mass spectrometer (Thermo Scientific) to determine the chromatographic peak areas the analytes and internal standards. Glucose and lactate were quantified by taking the ratio of the unlabeled peak area to the area of the isotope-labeled standard.

`CC(C)NC(=O)COc1cccc(-c2nc3c(c(Nc4ccc(-c5cn[nH]c5)cc4)n2)CN(C(=O)C(C)C)CC3)c1` [Example 1, 2-(3-(4-((4-(1H-pyrazol-4-yl)phenyl)amino)-6-isobutyryl-5,6,7,8-tetrahydropyrido[4,3-d]pyrimidin-2-yl)phenoxy)-N-isopropylacetamide] and `CC(=O)N1CCc2nc(-c3cccc(OCC(=O)NC(C)C)c3)nc(Nc3ccc(-c4cn[nH]c4)cc3)c2C1` [Example 44, 2-(3-(4-((4-(1H-pyrazol-4-yl)phenyl)amino)-6-acetyl-5,6,7,8-tetrahydropyrido[4,3-d]pyrimidin-2-yl)phenoxy)-N-isopropylacetamide] fall in the same range of IC50: 10 to 100 nM for the first, 10 to 100 nM for the second.

Compared with `CC(C)NC(=O)COc1cccc(-c2nc3c(c(Nc4ccc(-c5cn[nH]c5)cc4)n2)COC3)c1` [Example 2, 2-(3-(4-((4-(1H-pyrazol-4-yl)phenyl)amino)-5,7-dihydrofuro[3,4-d]pyrimidin-2-yl)phenoxy)-N-isopropylacetamide], `CCC(C)NC(=O)COc1cccc(-c2nc3c(c(Nc4ccc(-c5cn[nH]c5)cc4)n2)COC3)c1` (stereo not drawn) [Example 28, 2-(3-(4-((4-(1H-pyrazol-4-yl)phenyl)amino)-5,7-dihydrofuro[3,4-d]pyrimidin-2-yl)phenoxy)-N-(sec-butyl)acetamide] is lower in IC50: 101 to 250 nM for the first, 10 to 100 nM for the second.

First: O=C(COc1cccc(-c2nc(Nc3ccc(-c4cn[nH]c4)cc3)c3sccc3n2)c1)NC1CC1 [Example 5]
Second: CC(C)(C)NC(=O)COc1cccc(-c2nc(Nc3ccc(-c4cn[nH]c4)cc3)c3sccc3n2)c1 [Example 42, 2-(3-(4-((4-(1H-pyrazol-4-yl)phenyl)amino)thieno[3,2-d]pyrimidin-2-yl)phenoxy)-N-(tert-butyl)acetamide]
The IC50 of the first is higher: 251 to 500 nM for the first, 101 to 250 nM for the second.

First: O=C(COc1cccc(-c2nc(Nc3ccc(-c4cn[nH]c4)cc3)c3occc3n2)c1)NC1CCCC1 [Example 9]
Second: O=C(COc1cccc(-c2nc(Nc3ccc(-c4cn[nH]c4)cc3)c3ccncc3n2)c1)NC1CCCC1 [Example 21, 2-(3-(4-((4-(1H-pyrazol-4-yl)phenyl)amino)pyrido[3,4-d]pyrimidin-2-yl)phenoxy)-N-cyclopentylacetamide]
The IC50 of the first is higher: 251 to 500 nM for the first, 101 to 250 nM for the second. The second is the more potent here.

`Cn1cnc2c(Nc3ccc(-c4cn[nH]c4)cc3)nc(-c3cccc(OCC(=O)NC4CCC4)c3)nc21` [Example 11] and `Cn1ncc2c(Nc3ccc(-c4cn[nH]c4)cc3)nc(-c3cccc(OCC(=O)NC4CCC4)c3)nc21` [Example 15, 2-(3-(4-((4-(1H-pyrazol-4-yl)phenyl)amino)-1-methyl-1H-pyrazolo[3,4-d]pyrimidin-6-yl)phenoxy)-N-cyclobutylacetamide] fall in the same range of IC50: 101 to 250 nM for the first, 101 to 250 nM for the second.

`O=C(COc1cccc(-c2nc3c(c(Nc4ccc(-c5cn[nH]c5)cc4)n2)COC3)c1)NC1CCC1` [Example 12] and `O=C(COc1cccc(-c2nc3c(c(Nc4ccc(-c5cn[nH]c5)cc4)n2)COC3)c1)NC1CCCC1` [Example 13] fall in the same range of IC50: 101 to 250 nM for the first, 101 to 250 nM for the second.

`CC(C)CNC(=O)COc1cccc(-c2nc(Nc3ccc(-c4cn[nH]c4)cc3)c3ncccc3n2)c1` [Example 14, 2-(3-(4-((4-(1H-pyrazol-4-yl)phenyl)amino)pyrido[3,2-d]pyrimidin-2-yl)phenoxy)-N-isobutylacetamide] and `CC(C)CNC(=O)COc1cccc(-c2nc(Nc3ccc(-c4cn[nH]c4)cc3)c3ncsc3n2)c1` [Example 25, 2-(3-(7-((4-(1H-pyrazol-4-yl)phenyl)amino)thiazolo[5,4-d]pyrimidin-5-yl)phenoxy)-N-isobutylacetamide] fall in the same range of IC50: 251 to 500 nM for the first, 251 to 500 nM for the second.

`CC(C)NC(=O)COc1cccc(-c2nc(Nc3ccc(-c4cn[nH]c4)cc3)c3cnn(C)c3n2)c1` [Example 16, 2-(3-(4-((4-(1H-pyrazol-4-yl)phenyl)amino)-1-methyl-1H-pyrazolo[3,4-d]pyrimidin-6-yl)phenoxy)-N-isopropylacetamide] and `CC(C)CNC(=O)COc1cccc(-c2nc(Nc3ccc(-c4cn[nH]c4)cc3)c3cnn(C)c3n2)c1` [Example 18, 2-(3-(4-((4-(1H-pyrazol-4-yl)phenyl)amino)-1-methyl-1H-pyrazolo[3,4-d]pyrimidin-6-yl)phenoxy)-N-isobutylacetamide] fall in the same range of IC50: 10 to 100 nM for the first, 10 to 100 nM for the second.

First: Cn1ncc2c(Nc3ccc(-c4cn[nH]c4)cc3)nc(-c3cccc(OCC(=O)NC4CCCC4)c3)nc21 [Example 17, 2-(3-(4-((4-(1H-pyrazol-4-yl)phenyl)amino)-1-methyl-1H-pyrazolo[3,4-d]pyrimidin-6-yl)phenoxy)-N-cyclopentylacetamide]
Second: O=C(COc1cccc(-c2nc(Nc3ccc(-c4cn[nH]c4)cc3)c3ncsc3n2)c1)NC1CCCC1 [Example 24, 2-(3-(7-((4-(1H-pyrazol-4-yl)phenyl)amino)thiazolo[5,4-d]pyrimidin-5-yl)phenoxy)-N-cyclopentylacetamide]
The IC50 of the first is lower: 101 to 250 nM for the first, 251 to 500 nM for the second.

`CC(C)NC(=O)COc1cccc(-c2nc(Nc3ccc(-c4cn[nH]c4)cc3)c3ccncc3n2)c1` [Example 19, 2-(3-(4-((4-(1H-pyrazol-4-yl)phenyl)amino)pyrido[3,4-d]pyrimidin-2-yl)phenoxy)-N-isopropylacetamide] and `O=C(COc1cccc(-c2nc(Nc3ccc(-c4cn[nH]c4)cc3)c3ccncc3n2)c1)NC1CCC1` [Example 20, 2-(3-(4-((4-(1H-pyrazol-4-yl)phenyl)amino)pyrido[3,4-d]pyrimidin-2-yl)phenoxy)-N-cyclobutylacetamide] fall in the same range of IC50: 101 to 250 nM for the first, 101 to 250 nM for the second.

`CC(C)NC(=O)COc1cccc(-c2nc(Nc3ccc(-c4cn[nH]c4)cc3)c3ncsc3n2)c1` [Example 22, 2-(3-(7-((4-(1H-pyrazol-4-yl)phenyl)amino)thiazolo[5,4-d]pyrimidin-5-yl)phenoxy)-N-isopropylacetamide] and `O=C(COc1cccc(-c2nc(Nc3ccc(-c4cn[nH]c4)cc3)c3ncsc3n2)c1)NC1CCC1` [Example 23, 2-(3-(7-((4-(1H-pyrazol-4-yl)phenyl)amino)thiazolo[5,4-d]pyrimidin-5-yl)phenoxy)-N-cyclobutylacetamide] fall in the same range of IC50: 251 to 500 nM for the first, 251 to 500 nM for the second.

`CC(C)(C)NC(=O)COc1cccc(-c2nc3c(c(Nc4ccc(-c5cn[nH]c5)cc4)n2)COC3)c1` [Example 26, 2-(3-(4-((4-(1H-pyrazol-4-yl)phenyl)amino)-5,7-dihydrofuro[3,4-d]pyrimidin-2-yl)phenoxy)-N-(tert-butyl)acetamide dihydrochloride] and `CC(C)(C)CNC(=O)COc1cccc(-c2nc3c(c(Nc4ccc(-c5cn[nH]c5)cc4)n2)COC3)c1` [Example 30, 2-(3-(4-((4-(1H-pyrazol-4-yl)phenyl)amino)-5,7-dihydrofuro[3,4-d]pyrimidin-2-yl)phenoxy)-N-neopentylacetamide] fall in the same range of IC50: 101 to 250 nM for the first, 101 to 250 nM for the second.

First: CCC(CC)NC(=O)COc1cccc(-c2nc3c(c(Nc4ccc(-c5cn[nH]c5)cc4)n2)COC3)c1 [Example 27, 2-(3-(4-((4-(1H-pyrazol-4-yl)phenyl)amino)-5,7-dihydrofuro[3,4-d]pyrimidin-2-yl)phenoxy)-N-(pentan-3-yl)acetamide dihydrochloride]
Second: CC(C)CNC(=O)COc1cccc(-c2nc3c(c(Nc4ccc(-c5cn[nH]c5)cc4)n2)COC3)c1 [Example 29, 2-(3-(4-((4-(1H-pyrazol-4-yl)phenyl)amino)-5,7-dihydrofuro[3,4-d]pyrimidin-2-yl)phenoxy)-N-isobutylacetamide]
The IC50 of the first is lower: 10 to 100 nM for the first, 101 to 250 nM for the second. The first is the more potent here.

First: O=C(COc1cccc(-c2nc3c(c(Nc4ccc(-c5cn[nH]c5)cc4)n2)COC3)c1)NC1CC(F)(F)C1 [Example 32, 2-(3-(4-((4-(1H-pyrazol-4-yl)phenyl)amino)-5,7-dihydrofuro[3,4-d]pyrimidin-2-yl)phenoxy)-N-(3,3-difluorocyclobutyl)acetamide]
Second: CC(C)NC(=O)COc1cccc(-c2nc3c(c(Nc4ccc(-c5cn[nH]c5)cc4)n2)COCC3)c1 [Example 40, 2-(3-(4-((4-(1H-pyrazol-4-yl)phenyl)amino)-7,8-dihydro-5H-pyrano[4,3-d]pyrimidin-2-yl)phenoxy)-N-isopropylacetamide]
The IC50 of the first is higher: 251 to 500 nM for the first, 10 to 100 nM for the second.

`CC(C)NC(=O)COc1cccc(-c2nc3c(c(Nc4ccc(-c5cn[nH]c5)cc4)n2)CSC3)c1` [Example 34, 2-(3-(4-((4-(1H-pyrazol-4-yl)phenyl)amino)-5,7-dihydrothieno[3,4-d]pyrimidin-2-yl)phenoxy)-N-isopropylacetamide] and `O=C(COc1cccc(-c2nc3c(c(Nc4ccc(-c5cn[nH]c5)cc4)n2)CSC3)c1)NC1CCC1` [Example 35, 2-(3-(4-((4-(1H-pyrazol-4-yl)phenyl)amino)-5,7-dihydrothieno[3,4-d]pyrimidin-2-yl)phenoxy)-N-cyclobutylacetamide] fall in the same range of IC50: 501 to 1000 nM for the first, 501 to 1000 nM for the second.

First: O=C(COc1cccc(-c2nc3c(c(Nc4ccc(-c5cn[nH]c5)cc4)n2)CSC3)c1)NC1CCCC1 [Example 36, 2-(3-(4-((4-(1H-pyrazol-4-yl)phenyl)amino)-5,7-dihydrothieno[3,4-d]pyrimidin-2-yl)phenoxy)-N-cyclopentylacetamide]
Second: CCC(C)NC(=O)COc1cccc(-c2nc3c(c(Nc4ccc(-c5cn[nH]c5)cc4)n2)COCC3)c1 (stereo not drawn) [Example 41, 2-(3-(4-((4-(1H-pyrazol-4-yl)phenyl)amino)-7,8-dihydro-5H-pyrano[4,3-d]pyrimidin-2-yl)phenoxy)-N-(sec-butyl)acetamide]
The IC50 of the first is higher: 501 to 1000 nM for the first, 10 to 100 nM for the second.

`CCC(C)(C)NC(=O)COc1cccc(-c2nc(Nc3ccc(-c4cn[nH]c4)cc3)c3sccc3n2)c1` [Example 43, 2-(3-(4-((4-(1H-pyrazol-4-yl)phenyl)amino)thieno[3,2-d]pyrimidin-2-yl)phenoxy)-N-(tert-pentyl)acetamide] was tested, and the IC50 was 10 to 100 nM.
